Legend:
[1] = oral bioavailability in rats; assay type: in vivo; details: rat
[2] = oral bioavailability in dog; assay type: in vivo
[3] = oral bioavailability in humans; details: human, in vivo, 45% coefficient of variation
tumor [4] = test: preclinical anti-tumor activity; assay type: in vivo; details: oral Compound I versus I.V. paclitaxel
tumor [5] = test: Phase I data, Compound I single agent; assay type: in vivo, humans
NSCLC [6] = test: single-agent treatment of NSCLC patients; assay type: in vivo, humans; details: Compound I
NSCLC [7] = details: chemo-naive or pre-treated NSCLC; cited from earlier work
[8] = test system: variety of tumor types, including NSCLC; details: cited from earlier work

| oral bioavailability [1] | oral bioavailability [2] | bioavailability [3] [%] | SMILES | preclinical anti-tumor activity (tumor [4]) | anti-tumor activity (tumor [5]; continuous weekly schedule, doses of 120 mg/m^2 and higher) | tolerability (tumor [5]; doses of 120 and 200 mg/m^2) | dose limiting toxicities (tumor [5]; twice weekly schedule, doses of 60 mg/m^2 and higher, versus weekly schedule) | activity in treatment of pre-treated NSCLC (NSCLC [6]) | main toxicity (NSCLC [6]; pre-treated NSCLC) | activity in treatment of NSCLC (NSCLC [7]) | tolerability profile (NSCLC [7]) | anti-tumor activity in pre-clinical models [8] |
| --- | --- | --- | --- | --- | --- | --- | --- | --- | --- | --- | --- | --- |
| good oral bioavailability | good oral bioavailability | 24 | COC(=O)O[C@@]12CO[C@@H]1C[C@H](O)[C@@]1(C)C(=O)[C@H](OC(C)=O)C3=C(C)[C@@H](OC(=O)[C@H](O)[C@@H](NC(=O)OC(C)(C)C)C(C)(C)C)C[C@@](O)([C@@H](OC(=O)c4ccccc4)[C@H]21)C3(C)C [Compound I, 3′-tert-butyl-3′-N-tert-butyloxycarbonyl-4-deacetyl-3′-dephenyl-3′-N-debenzoyl-4-O-methoxycarbonyl-paclitaxel] | comparable to intravenous (I.V.) paclitaxel | shows anti-tumor activity | acceptable | may reduce dose limiting toxicities | promising early signs of activity | transient, manageable neuropathy |  |  |  |
|  |  |  | Nc1nc2[nH]cc(CCc3ccc(C(=O)N[C@@H](CCC(=O)O)C(=O)O)cc3)c2c(=O)[nH]1 [Pemetrexed] |  |  |  |  |  |  | single-agent activity | acceptable tolerability profile | has shown anti-tumor activity |
